Data from ChEMBL document CHEMBL3751798, “Targeting cancer cells with oleanolic and ursolic acid derived hydroxamates” (Bioorg Med Chem Lett, 2016).

Tested on: HT-29
Experiment: Cytotoxicity against human HT-29 cells after 96 hrs by SRB assay
Format: functional, cell-based
Conditions: HT-29, 96 h
CON(C)C(=O)[C@]12CC[C@@H](C)[C@H](C)[C@H]1C1=CC[C@@H]3[C@@]4(C)CC[C@H](OC(C)=O)C(C)(C)[C@@H]4CC[C@@]3(C)[C@]1(C)CC2 gave an EC50 of 17.6 µM. Work on CONC(=O)[C@]12CCC(C)(C)C[C@H]1C1=CC[C@@H]3[C@@]4(C)CC[C@H](O)C(C)(C)[C@@H]4CC[C@@]3(C)[C@]1(C)CC2 yielded an EC50 of 18.8 µM. CC1(C)CC[C@]2(C(=O)O)CC[C@]3(C)C(=CC[C@@H]4[C@@]5(C)CC[C@H](O)C(C)(C)[C@@H]5CC[C@]43C)[C@@H]2C1 [OLEANOLIC_ACID] gave an EC50 of 38.8 µM. CONC(=O)[C@]12CC[C@@H](C)[C@H](C)[C@H]1C1=CC[C@@H]3[C@@]4(C)CCC(=O)C(C)(C)[C@@H]4CC[C@@]3(C)[C@]1(C)CC2 gave an EC50 of 12.9 µM. Work on CONC(=O)[C@]12CC[C@@H](C)[C@H](C)[C@H]1C1=CC[C@@H]3[C@@]4(C)CC[C@H](O)C(C)(C)[C@@H]4CC[C@@]3(C)[C@]1(C)CC2 yielded an EC50 of 15.4 µM. With C=C(C)[C@@H]1CC[C@]2(C(=O)O)CC[C@]3(C)[C@H](CC[C@@H]4[C@@]5(C)CC[C@H](O)C(C)(C)[C@@H]5CC[C@]43C)[C@@H]12 [BETULINIC ACID] the EC50 was 14.4 µM.

Tested on: FaDu
Experiment: Cytotoxicity against human FADU cells after 96 hrs by SRB assay
Format: functional, cell-based
Conditions: not given
C[C@H]1[C@H](C)CC[C@]2(C(=O)O)CC[C@]3(C)C(=CC[C@@H]4[C@@]5(C)CC[C@H](O)C(C)(C)[C@@H]5CC[C@]43C)[C@H]12 [URSOLIC ACID] gave an EC50 of 14.2 µM. With CON(C)C(=O)[C@]12CC[C@@H](C)[C@H](C)[C@H]1C1=CC[C@@H]3[C@@]4(C)CC[C@H](OC(C)=O)C(C)(C)[C@@H]4CC[C@@]3(C)[C@]1(C)CC2 the EC50 was 15 µM. CONC(=O)[C@]12CCC(C)(C)C[C@H]1C1=CC[C@@H]3[C@@]4(C)CC[C@H](O)C(C)(C)[C@@H]4CC[C@@]3(C)[C@]1(C)CC2 gave an EC50 of 14.3 µM. Compound CC1(C)CC[C@]2(C(=O)O)CC[C@]3(C)C(=CC[C@@H]4[C@@]5(C)CC[C@H](O)C(C)(C)[C@@H]5CC[C@]43C)[C@@H]2C1 [OLEANOLIC_ACID] has an EC50 of 75.4 µM. Work on CONC(=O)[C@]12CC[C@@H](C)[C@H](C)[C@H]1C1=CC[C@@H]3[C@@]4(C)CCC(=O)C(C)(C)[C@@H]4CC[C@@]3(C)[C@]1(C)CC2 yielded an EC50 of 12 µM. CONC(=O)[C@]12CC[C@@H](C)[C@H](C)[C@H]1C1=CC[C@@H]3[C@@]4(C)CC[C@H](O)C(C)(C)[C@@H]4CC[C@@]3(C)[C@]1(C)CC2 showed an EC50 of 11.2 µM. In the case of C=C(C)[C@@H]1CC[C@]2(C(=O)O)CC[C@]3(C)[C@H](CC[C@@H]4[C@@]5(C)CC[C@H](O)C(C)(C)[C@@H]5CC[C@]43C)[C@@H]12 [BETULINIC ACID], the EC50 is reported as 15.3 µM.

Tested on: A2780
Experiment: Cytotoxicity against human A2780 cells after 96 hrs by SRB assay
Format: functional, cell-based
Conditions: A2780, 96 h
Compound C[C@H]1[C@H](C)CC[C@]2(C(=O)O)CC[C@]3(C)C(=CC[C@@H]4[C@@]5(C)CC[C@H](O)C(C)(C)[C@@H]5CC[C@]43C)[C@H]12 [URSOLIC ACID] has an EC50 of 11.7 µM. Compound CON(C)C(=O)[C@]12CC[C@@H](C)[C@H](C)[C@H]1C1=CC[C@@H]3[C@@]4(C)CC[C@H](OC(C)=O)C(C)(C)[C@@H]4CC[C@@]3(C)[C@]1(C)CC2 has an EC50 of 9.8 µM. Work on CONC(=O)[C@]12CCC(C)(C)C[C@H]1C1=CC[C@@H]3[C@@]4(C)CC[C@H](O)C(C)(C)[C@@H]4CC[C@@]3(C)[C@]1(C)CC2 yielded an EC50 of 12.3 µM. In the case of CC1(C)CC[C@]2(C(=O)O)CC[C@]3(C)C(=CC[C@@H]4[C@@]5(C)CC[C@H](O)C(C)(C)[C@@H]5CC[C@]43C)[C@@H]2C1 [OLEANOLIC_ACID], the EC50 is reported as 14 µM. CONC(=O)[C@]12CC[C@@H](C)[C@H](C)[C@H]1C1=CC[C@@H]3[C@@]4(C)CCC(=O)C(C)(C)[C@@H]4CC[C@@]3(C)[C@]1(C)CC2 showed an EC50 of 14.3 µM. With CONC(=O)[C@]12CC[C@@H](C)[C@H](C)[C@H]1C1=CC[C@@H]3[C@@]4(C)CC[C@H](O)C(C)(C)[C@@H]4CC[C@@]3(C)[C@]1(C)CC2 the EC50 was 12.1 µM.

Tested on: A549
Experiment: Cytotoxicity against human A549 cells after 96 hrs by SRB assay
Format: functional, cell-based
Conditions: A549, 96 h
In the case of CON(C)C(=O)[C@]12CC[C@@H](C)[C@H](C)[C@H]1C1=CC[C@@H]3[C@@]4(C)CC[C@H](OC(C)=O)C(C)(C)[C@@H]4CC[C@@]3(C)[C@]1(C)CC2, the EC50 is reported as 9.6 µM. CONC(=O)[C@]12CCC(C)(C)C[C@H]1C1=CC[C@@H]3[C@@]4(C)CC[C@H](O)C(C)(C)[C@@H]4CC[C@@]3(C)[C@]1(C)CC2 gave an EC50 of 20.9 µM. With CC1(C)CC[C@]2(C(=O)O)CC[C@]3(C)C(=CC[C@@H]4[C@@]5(C)CC[C@H](O)C(C)(C)[C@@H]5CC[C@]43C)[C@@H]2C1 [OLEANOLIC_ACID] the EC50 was 72.3 µM. Work on CONC(=O)[C@]12CC[C@@H](C)[C@H](C)[C@H]1C1=CC[C@@H]3[C@@]4(C)CCC(=O)C(C)(C)[C@@H]4CC[C@@]3(C)[C@]1(C)CC2 yielded an EC50 of 9.2 µM. In the case of CONC(=O)[C@]12CC[C@@H](C)[C@H](C)[C@H]1C1=CC[C@@H]3[C@@]4(C)CC[C@H](O)C(C)(C)[C@@H]4CC[C@@]3(C)[C@]1(C)CC2, the EC50 is reported as 8.3 µM.

Tested on: MCF7
Experiment: Cytotoxicity against human MCF7 cells after 96 hrs by SRB assay
Format: functional, cell-based
Conditions: MCF7, 96 h
For CON(C)C(=O)[C@]12CC[C@@H](C)[C@H](C)[C@H]1C1=CC[C@@H]3[C@@]4(C)CC[C@H](OC(C)=O)C(C)(C)[C@@H]4CC[C@@]3(C)[C@]1(C)CC2, the EC50 was 15.4 µM. With CONC(=O)[C@]12CCC(C)(C)C[C@H]1C1=CC[C@@H]3[C@@]4(C)CC[C@H](O)C(C)(C)[C@@H]4CC[C@@]3(C)[C@]1(C)CC2 the EC50 was 17 µM. For CC1(C)CC[C@]2(C(=O)O)CC[C@]3(C)C(=CC[C@@H]4[C@@]5(C)CC[C@H](O)C(C)(C)[C@@H]5CC[C@]43C)[C@@H]2C1 [OLEANOLIC_ACID], the EC50 was 80 µM. CONC(=O)[C@]12CC[C@@H](C)[C@H](C)[C@H]1C1=CC[C@@H]3[C@@]4(C)CCC(=O)C(C)(C)[C@@H]4CC[C@@]3(C)[C@]1(C)CC2 showed an EC50 of 11.2 µM. Compound CONC(=O)[C@]12CC[C@@H](C)[C@H](C)[C@H]1C1=CC[C@@H]3[C@@]4(C)CC[C@H](O)C(C)(C)[C@@H]4CC[C@@]3(C)[C@]1(C)CC2 has an EC50 of 10 µM.

Tested on: not listed separately
Experiment: Cytotoxicity against human 518A2 cells after 96 hrs by SRB assay
Format: functional, cell-based
Conditions: 518A2, 96 h
For CON(C)C(=O)[C@]12CC[C@@H](C)[C@H](C)[C@H]1C1=CC[C@@H]3[C@@]4(C)CC[C@H](OC(C)=O)C(C)(C)[C@@H]4CC[C@@]3(C)[C@]1(C)CC2, the EC50 was 12.7 µM. With CONC(=O)[C@]12CCC(C)(C)C[C@H]1C1=CC[C@@H]3[C@@]4(C)CC[C@H](O)C(C)(C)[C@@H]4CC[C@@]3(C)[C@]1(C)CC2 the EC50 was 12.8 µM. CC1(C)CC[C@]2(C(=O)O)CC[C@]3(C)C(=CC[C@@H]4[C@@]5(C)CC[C@H](O)C(C)(C)[C@@H]5CC[C@]43C)[C@@H]2C1 [OLEANOLIC_ACID] showed an EC50 of 64.3 µM. CONC(=O)[C@]12CC[C@@H](C)[C@H](C)[C@H]1C1=CC[C@@H]3[C@@]4(C)CCC(=O)C(C)(C)[C@@H]4CC[C@@]3(C)[C@]1(C)CC2 gave an EC50 of 12.9 µM. With CONC(=O)[C@]12CC[C@@H](C)[C@H](C)[C@H]1C1=CC[C@@H]3[C@@]4(C)CC[C@H](O)C(C)(C)[C@@H]4CC[C@@]3(C)[C@]1(C)CC2 the EC50 was 14.3 µM. Compound C=C(C)[C@@H]1CC[C@]2(C(=O)O)CC[C@]3(C)[C@H](CC[C@@H]4[C@@]5(C)CC[C@H](O)C(C)(C)[C@@H]5CC[C@]43C)[C@@H]12 [BETULINIC ACID] has an EC50 of 9.4 µM.

Tested on: not listed separately
Experiment: Cytotoxicity against mouse NIH/3T3 cells after 96 hrs by SRB assay
Format: cell-based
Conditions: NIH3T3, 96 h
With C[C@H]1[C@H](C)CC[C@]2(C(=O)O)CC[C@]3(C)C(=CC[C@@H]4[C@@]5(C)CC[C@H](O)C(C)(C)[C@@H]5CC[C@]43C)[C@H]12 [URSOLIC ACID] the EC50 was 18.7 µM. Compound CON(C)C(=O)[C@]12CC[C@@H](C)[C@H](C)[C@H]1C1=CC[C@@H]3[C@@]4(C)CC[C@H](OC(C)=O)C(C)(C)[C@@H]4CC[C@@]3(C)[C@]1(C)CC2 has an EC50 of 23 µM. In the case of CONC(=O)[C@]12CCC(C)(C)C[C@H]1C1=CC[C@@H]3[C@@]4(C)CC[C@H](O)C(C)(C)[C@@H]4CC[C@@]3(C)[C@]1(C)CC2, the EC50 is reported as 18.2 µM. Work on CC1(C)CC[C@]2(C(=O)O)CC[C@]3(C)C(=CC[C@@H]4[C@@]5(C)CC[C@H](O)C(C)(C)[C@@H]5CC[C@]43C)[C@@H]2C1 [OLEANOLIC_ACID] yielded an EC50 of 76.4 µM. Compound CONC(=O)[C@]12CC[C@@H](C)[C@H](C)[C@H]1C1=CC[C@@H]3[C@@]4(C)CCC(=O)C(C)(C)[C@@H]4CC[C@@]3(C)[C@]1(C)CC2 has an EC50 of 14.3 µM. With CONC(=O)[C@]12CC[C@@H](C)[C@H](C)[C@H]1C1=CC[C@@H]3[C@@]4(C)CC[C@H](O)C(C)(C)[C@@H]4CC[C@@]3(C)[C@]1(C)CC2 the EC50 was 16.2 µM.
